In ChEMBL document CHEMBL5512597, “Triazole hybrid compounds: A new frontier in malaria treatment” (Eur J Med Chem, 2023):
pIC50: −log10 of the molar value. Values after ≈ are worked out from the molar mass of the structure shown.

Tests used:
Plasmodium falciparum [1] = assay: Antiplasmodial activity against Plasmodium falciparum K1 at asexual stage assessed as parasite growth inhibition; assay type: functional, organism-based
Plasmodium falciparum [2] = assay: Antiplasmodial activity against CQ-sensitive Plasmodium falciparum NF54 at asexual stage assessed as parasite growth inhibition; assay type: functional, organism-based
Plasmodium falciparum [3] = assay: Antiplasmodial activity against Plasmodium falciparum 3D7 at asexual erythrocytic stage infected in human erythrocytes assessed as parasite growth inhibition incubated for 42 hrs by [3H]-hypoxanthine incorporation assay; assay type: functional, organism-based; settings: 3D7, Erythrocyte
Plasmodium falciparum [4] = assay: Antimalarial activity against Plasmodium falciparum W2 assessed as parasite growth inhibition; assay type: functional, organism-based
Plasmodium falciparum [5] = assay: Antimalarial activity against Plasmodium falciparum 3D7 assessed as inhibition of parasite proliferation; assay type: functional, organism-based
Plasmodium falciparum [6] = assay: Antimalarial activity against CQ-sensitive Plasmodium falciparum 3D7 infected in human O+ erythrocytes assessed as parasite growth inhibition incubated for 48 hrs by SYBR Green I staining based analysis; assay type: functional, organism-based; settings: 3D7, Erythrocyte
Plasmodium falciparum [7] = assay: Antimalarial activity against CQ-resistant Plasmodium falciparum K1 infected in human O+ erythrocytes assessed as parasite growth inhibition incubated for 48 hrs by SYBR Green I staining based analysis; assay type: functional, organism-based; settings: K1, Erythrocyte
[8] = Cytotoxicity against African green monkey Vero cells after 72 hrs by MTT assay; assay type: toxicity, cell-based; settings: chlorocebus sabaeus
Plasmodium falciparum [9] = assay: Antimalarial activity against Plasmodium falciparum 3D7 infected in erythrocytes assessed as parasite growth inhibition incubated for 42 hrs by [3H]-hypoxanthine incorporation assay; assay type: functional, organism-based; settings: 3D7, Erythrocyte
Plasmodium falciparum [10] = assay: Antimalarial activity against CQ-sensitive Plasmodium falciparum D6 assessed as parasite growth inhibition by LDH assay; assay type: functional, organism-based
Plasmodium falciparum [11] = assay: Antimalarial activity against CQ-resistant Plasmodium falciparum W2 assessed as parasite growth inhibition by LDH assay; assay type: functional, organism-based

COC(=O)C1=C(Cn2cc(CNc3ccnc4cc(Cl)ccc34)nn2)N(C)C(=O)NC1c1ccc(OC)cc1 (configuration not stated)
pIC50 (Plasmodium falciparum [1]): 6.38 | pIC50 (Plasmodium falciparum [2]): 6.74

NS(=O)(=O)c1ccc(-n2cc(COc3ccc(F)cc3)nn2)cc1
IC50 (Plasmodium falciparum [3]): 15.4 µg/mL (≈ 44.2 µM)

Cc1cc(C)nc(NS(=O)(=O)c2ccc(-n3cc(COc4ccccc4)nn3)cc2)n1
IC50 (Plasmodium falciparum [3]): > 50 µg/mL

C=C[C@H]1CN2CC[C@H]1C[C@H]2[C@H](c1ccnc2ccccc12)n1cc(-c2ccccc2)nn1
pIC50 (Plasmodium falciparum [4]): 5.33

CC(C)(CO)[C@@H](O)C(=O)NCCc1cn(CCc2ccccc2)nn1
pIC50 (Plasmodium falciparum [5]): 5.27

COC(=O)c1ccccc1-c1ccc(Cn2cc(-c3cncc4ccccc34)nn2)cc1
pIC50 (Plasmodium falciparum [6]): 4.45 | pIC50 (Plasmodium falciparum [7]): 4.28

O=C(Cn1cc(COc2ccc(Br)cc2)nn1)NCCCNc1ccnc2cc(Cl)ccc12
CC50 at 72 h [8]: 27.1 µM

CCCCCn1nncc1CCNC(=O)[C@H](O)C(C)(C)CO
pIC50 (Plasmodium falciparum [5]): < 4.00

COC(=O)C1=C(Cn2cc(CNc3ccnc4cc(Cl)ccc34)nn2)NC(=O)NC1c1ccc(F)cc1 (configuration not stated)
pIC50 (Plasmodium falciparum [1]): 6.26 | pIC50 (Plasmodium falciparum [2]): 6.66

COC(=O)C1=C(Cn2cc(CNc3ccnc4cc(Cl)ccc34)nn2)NC(=O)NC1c1ccc(OC)cc1 (configuration not stated)
pIC50 (Plasmodium falciparum [1]): 6.25 | pIC50 (Plasmodium falciparum [2]): 6.61

Clc1ccc(-n2cc(-c3cncc4ccccc34)nn2)cc1
pIC50 (Plasmodium falciparum [6]): 4.43 | pIC50 (Plasmodium falciparum [7]): 5.34

NS(=O)(=O)c1ccc(-n2cc(COc3ccccc3)nn2)cc1
IC50 (Plasmodium falciparum [3]): 15 µg/mL (≈ 45.4 µM)

Clc1cccc(-n2cc(-c3cncc4ccccc34)nn2)c1
pIC50 (Plasmodium falciparum [6]): 3.44 | pIC50 (Plasmodium falciparum [7]): 4.02

COC(=O)C1=C(Cn2cc(CNc3ccnc4cc(Cl)ccc34)nn2)N(C)C(=O)NC1c1ccc(F)cc1 (configuration not stated)
pIC50 (Plasmodium falciparum [1]): 6.30 | pIC50 (Plasmodium falciparum [2]): 6.86

COc1ccc2cc3[n+](cc2c1OCc1cn(-c2ccc(S(=O)(=O)Nc4ccc([N+](=O)[O-])cc4)cc2)nn1)CCc1cc2c(cc1-3)OCO2.Cl
IC50 (Plasmodium falciparum [9]): 20 µg/mL

CCCn1cc(CCNC(=O)[C@H](O)C(C)(C)CO)nn1
pIC50 (Plasmodium falciparum [5]): 5.28

C=C[C@H]1CN2CC[C@H]1C[C@H]2[C@H](c1ccnc2ccccc12)n1cc(CCC)nn1
pIC50 (Plasmodium falciparum [4]): 5.70

CCCCn1cc(CCNC(=O)[C@H](O)C(C)(C)CO)nn1
pIC50 (Plasmodium falciparum [5]): 5.48

CCCCCn1nncc1CNC(=O)[C@H](O)C(C)(C)CO
pIC50 (Plasmodium falciparum [5]): 4.44

Cc1ccc(OCc2cn(-c3ccc(S(N)(=O)=O)cc3)nn2)cc1
IC50 (Plasmodium falciparum [3]): > 50 µg/mL

COc1ccc2cc3[n+](cc2c1OCc1cn(-c2ccc(S(=O)(=O)N4CCCCC4)cc2)nn1)CCc1cc2c(cc1-3)OCO2.[Cl-]
IC50 (Plasmodium falciparum [9]): 0.8 µg/mL

COc1ccc2cc3[n+](cc2c1OCc1cn(-c2ccc(S(=O)(=O)N4CCN(C)CC4)cc2)nn1)CCc1cc2c(cc1-3)OCO2.[Cl-]
IC50 (Plasmodium falciparum [9]): 0.8 µg/mL

CCCCCc1cn(CCNC(=O)[C@H](O)C(C)(C)CO)nn1
pIC50 (Plasmodium falciparum [5]): 5.07

O=C1c2nnn(Cc3cccc(Cl)c3)c2C(=O)c2nnn(Cc3cccc(Cl)c3)c21
pIC50 (Plasmodium falciparum [10]): 5.20 | pIC50 (Plasmodium falciparum [11]): 5.12

O=S(=O)(c1ccc(-n2cc(COc3ccccc3)nn2)cc1)N1CCCCC1
IC50 (Plasmodium falciparum [3]): > 50 µg/mL

COc1ccc2cc3[n+](cc2c1OCc1cn(-c2ccc(S(=O)(=O)N4CCOCC4)cc2)nn1)CCc1cc2c(cc1-3)OCO2.[Cl-]
IC50 (Plasmodium falciparum [9]): 0.5 µg/mL

Cc1cccc(Cn2nnc3c2C(=O)c2nnn(Cc4cccc(C)c4)c2C3=O)c1
pIC50 (Plasmodium falciparum [10]): 5.08 | pIC50 (Plasmodium falciparum [11]): 5.18

CC(C)(C)c1ccc(Cn2cc(-c3cccc4ccccc34)nn2)cc1
pIC50 (Plasmodium falciparum [6]): 4.43 | pIC50 (Plasmodium falciparum [7]): 4.37

C=C[C@H]1CN2CC[C@H]1C[C@H]2[C@H](c1ccnc2ccccc12)n1cc(C(C)(C)N)nn1
pIC50 (Plasmodium falciparum [4]): 5.34

C=C[C@H]1CN2CC[C@H]1C[C@H]2[C@H](c1ccnc2ccccc12)n1cc(CO)nn1
pIC50 (Plasmodium falciparum [4]): 5.17

O=C1c2nnn(Cc3cccc([N+](=O)[O-])c3)c2C(=O)c2nnn(Cc3cccc([N+](=O)[O-])c3)c21
pIC50 (Plasmodium falciparum [10]): 5.72 | pIC50 (Plasmodium falciparum [11]): 5.54

Clc1ccc2c(-c3cn(CC(c4ccccc4)c4ccccc4)nn3)ccnc2c1
pIC50 (Plasmodium falciparum [6]): 4.04 | pIC50 (Plasmodium falciparum [7]): 4.14

C=C[C@H]1CN2CC[C@H]1C[C@H]2[C@H](c1ccnc2ccccc12)n1cc(C(C)(C)O)nn1
pIC50 (Plasmodium falciparum [4]): 5.59

O=C1c2nnn(Cc3cccc(F)c3)c2C(=O)c2nnn(Cc3cccc(F)c3)c21
pIC50 (Plasmodium falciparum [10]): 6.17 | pIC50 (Plasmodium falciparum [11]): 6.23
